Results from patent US20220125959A1, “PROSTATE-SPECIFIC MEMBRANE ANTIGEN (PSMA) INHIBITORS AS DIAGNOSTIC AND RADIONUCLIDE THERAPEUTIC AGENTS” (FIVE ELEVEN PHARMA INC., priority 2019, published 2022).

Tests used:
[1] = Stability of injected doses after formulation; type: physicochemical; settings: at 24 hr after formulation
Procedure, shortened: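 Ligand labeled with ^68Ga (90° C, 10 min) or ^177Lu (95° C, 1 hour) in NaOAc; radiochemical purity checked by radio-HPLC, with stability of formulated doses followed to 2 hr (^68Ga) or 48 hr (^177Lu). Mice received iv 100 μCi, 0.72 nmole ligand/mouse.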

[2] = system: PSMA-negative cell line, PC3; assay: In vitro cell uptake, PC3 cells; type: cell-based; settings: PC3 (do not express PSMA), 60 min
Experimental: (§1) To determine the cell uptakes of the [^177Lu] labelled ligands, 5×10^5 cells/well were grown in 12-well plates in 1 mL of medium for 48 h. The cells were washed twice with PBS, and 900 μL fresh media were added. Radiolabelled ligand was added and the PSMA-inhibitor (2-PMPA) was applied in a final concentration of 10 μM to determine unspecific binding. All samples were prepared in triplicate. Following the incubation at 37° C., cells were washed twice to remove unbound activity and afterwards lysed in 1 mL of 0.5 M NaOH. Activity was measured in a gamma counter. Aliquots of the solution added to the cells were also measured for the calculation of the cellular uptake as % ID.

[3] = system: PC3-PIP (PSMA positive) and PC-3 tumors (PSMA negative); assay: Biodistribution of 177Lu labeled compounds 42 and 51 in tumor bearing nude mice; type: in vivo, CD-1 male nude mice
Experimental: For iv injection 150 μL of labeled solution was diluted with saline to 3.75mL. Mice were injected with 150 μL of formulated dose. Injected radioactivity was 100 μCi and PSMA ligand amount was constant at 0.72 nmole/mouse.
Similarly, the tissue distribution of [^177Lu]42 and [^177Lu]51 was evaluated in mice bearing PIP PC3 (PSMA positive) and PC3 (PSMA negative) tumors on the left and right shoulder, respectively, over a period of 24 h (Table 4). […] The tumor specific uptake for [^177Lu]51 was higher than that observed for [^177Lu]42. […] Results of this study lend support for using these dual-targeted ^177Lu labeled agents for treatment of metastatic prostate cancer.

[4] = system: PSMA-positive cell line, PIP PC3; assay: In vitro cell uptake, PIP PC3 cells; type: cell-based
Experimental: as §1, with “Radiolabelled ligand was added and the PSMA-inhibitor (2-PMPA) was applied in a final concentration of 10 μM to determine unspecific binding.” left out

[5] = PIP PC3, 60 min, with PSMA inhibitor (2-PMPA, 2 uM)

O=C(O)CC[C@H](NC(=O)N[C@@H](CCCCNC(=O)[C@H](Cc1ccccc1)NC(=O)COc1ccc(C[C@H](NC(=O)CNC(=O)CCC(C(=O)O)N2CCN(CC(=O)O)CCN(CC(=O)O)CCN(CC(=O)O)CC2)C(=O)NCC(=O)NC(P(=O)(O)O)P(=O)(O)O)cc1)C(=O)O)C(=O)O.[177Lu] (stereo partly shown) [[^177Lu]51]
Stability of injected doses [1]: stable
In vitro cell uptake [2]: 0.7 % ID per 5 × 10^5 cells
Biodistribution: Blood ([3]; 1 hr): 0.18 ± 0.04 % dose/g
Biodistribution: Bone ([3]; 1 hr): 6.52 ± 0.34 % dose/g
Biodistribution: Heart ([3]; 1 hr): 0.20 ± 0.06 % dose/g
Biodistribution: Kidney ([3]; 1 hr): 90.59 ± 18.47 % dose/g
Biodistribution: Lg Intestine ([3]; 1 hr): 0.10 ± 0.04 % dose/g
Biodistribution: Liver ([3]; 1 hr): 0.23 ± 0.03 % dose/g
Biodistribution: Lung ([3]; 1 hr): 0.62 ± 0.09 % dose/g
Biodistribution: Muscle ([3]; 1 hr): 0.11 ± 0.03 % dose/g
Biodistribution: PC3 tumor ([3]; 1 hr): 0.53 ± 0.12 % dose/g
Biodistribution: PIP PC3 tumor ([3]; 1 hr): 14.70 ± 1.29 % dose/g
Biodistribution: Pancreas ([3]; 1 hr): 0.37 ± 0.11 % dose/g
Biodistribution: Skin ([3]; 1 hr): 0.35 ± 0.05 % dose/g
Biodistribution: Sm Intestine ([3]; 1 hr): 0.16 ± 0.03 % dose/g
Biodistribution: Spleen ([3]; 1 hr): 1.33 ± 0.41 % dose/g
Biodistribution: Stomach ([3]; 1 hr): 0.11 ± 0.03 % dose/g
Biodistribution: Blood ([3]; 4 hr): 0.03 ± 0.01 % dose/g
Biodistribution: Bone ([3]; 4 hr): 6.74 ± 0.71 % dose/g
Biodistribution: Heart ([3]; 4 hr): 0.05 ± 0.00 % dose/g
Biodistribution: Kidney ([3]; 4 hr): 35.24 ± 5.28 % dose/g
Biodistribution: Lg Intestine ([3]; 4 hr): 0.22 ± 0.15 % dose/g
Biodistribution: Liver ([3]; 4 hr): 0.16 ± 0.00 % dose/g
Biodistribution: Lung ([3]; 4 hr): 0.20 ± 0.06 % dose/g
Biodistribution: Muscle ([3]; 4 hr): 0.03 ± 0.00 % dose/g
Biodistribution: PC3 tumor ([3]; 4 hr): 0.20 ± 0.03 % dose/g
Biodistribution: PIP PC3 tumor ([3]; 4 hr): 15.12 ± 1.36 % dose/g
Biodistribution: Pancreas ([3]; 4 hr): 0.11 ± 0.03 % dose/g
Biodistribution: Skin ([3]; 4 hr): 0.11 ± 0.01 % dose/g
Biodistribution: Sm Intestine ([3]; 4 hr): 0.21 ± 0.29 % dose/g
Biodistribution: Spleen ([3]; 4 hr): 0.39 ± 0.12 % dose/g
Biodistribution: Stomach ([3]; 4 hr): 0.26 ± 0.23 % dose/g
Biodistribution: Blood ([3]; 24 hr): 0.00 ± 0.00 % dose/g
Biodistribution: Bone ([3]; 24 hr): 5.51 ± 0.66 % dose/g
Biodistribution: Heart ([3]; 24 hr): 0.03 ± 0.01 % dose/g
Biodistribution: Kidney ([3]; 24 hr): 4.18 ± 1.74 % dose/g
Biodistribution: Lg Intestine ([3]; 24 hr): 0.49 ± 0.34 % dose/g
Biodistribution: Liver ([3]; 24 hr): 0.14 ± 0.02 % dose/g
Biodistribution: Lung ([3]; 24 hr): 0.10 ± 0.04 % dose/g
Biodistribution: Muscle ([3]; 24 hr): 0.02 ± 0.00 % dose/g
Biodistribution: PC3 tumor ([3]; 24 hr): 0.16 ± 0.02 % dose/g
Biodistribution: PIP PC3 tumor ([3]; 24 hr): 10.75 ± 2.52 % dose/g
Biodistribution: Pancreas ([3]; 24 hr): 0.03 ± 0.00 % dose/g
Biodistribution: Skin ([3]; 24 hr): 0.07 ± 0.02 % dose/g
Biodistribution: Sm Intestine ([3]; 24 hr): 0.30 ± 0.33 % dose/g
Biodistribution: Spleen ([3]; 24 hr): 0.15 ± 0.04 % dose/g
Biodistribution: Stomach ([3]; 24 hr): 0.40 ± 0.56 % dose/g
Bone uptake compared with [177Lu]42 ([3]; mouse, in vivo): consistently higher
PC3 (PSMA negative) tumor uptake ([3]; mouse, in vivo): very low uptake
PIP PC3 (PSMA positive) tumor uptake ([3]; mouse, in vivo): excellent
Tumor specific uptake compared with [177Lu]42 ([3]; mouse, in vivo): higher
Uptake in bone ([3]; mouse, in vivo): high specific uptake in bone
Uptakes compared with reference ligand [177Lu]PSMA-617 ([4]; PIP PC3): much higher uptakes
In vitro cell uptake ([4]; PIP PC3, 5 min): 4.4 % ID per 5 × 10^5 cells
In vitro cell uptake ([4]; PIP PC3, 15 min): 8.4 % ID per 5 × 10^5 cells
In vitro cell uptake ([4]; PIP PC3, 30 min): 13.4 % ID per 5 × 10^5 cells
In vitro cell uptake ([4]; PIP PC3, 60 min): 17.4 % ID per 5 × 10^5 cells
In vitro cell uptake [4, 5]: 1.1 % ID per 5 × 10^5 cells
In vitro cell uptake ([4]; PIP PC3, 120 min): 19.3 % ID per 5 × 10^5 cells

O=C([O-])CN1CCN(C(CCC(=O)NCC(=O)NC(Cc2ccc(OCC(=O)NC(Cc3ccccc3)C(=O)NCCCCC(NC(=O)NC(CCC(=O)O)C(=O)O)C(=O)O)cc2)C(=O)O)C(=O)[O-])CCN(CC(=O)[O-])CCN(C(CCC(=O)NCC(=O)NC(P(=O)(O)O)P(=O)(O)O)C(=O)O)CC1.[177Lu+3] (stereo not shown) [[^177Lu]42]
Stability of injected doses [1]: stable
In vitro cell uptake [2]: 0.8 % ID per 5 × 10^5 cells
Biodistribution: Blood ([3]; 1 hr): 0.18 ± 0.05 % dose/g
Biodistribution: Bone ([3]; 1 hr): 5.82 ± 1.59 % dose/g
Biodistribution: Heart ([3]; 1 hr): 0.13 ± 0.03 % dose/g
Biodistribution: Kidney ([3]; 1 hr): 27.52 ± 7.47 % dose/g
Biodistribution: Lg Intestine ([3]; 1 hr): 0.11 ± 0.03 % dose/g
Biodistribution: Liver ([3]; 1 hr): 0.12 ± 0.02 % dose/g
Biodistribution: Lung ([3]; 1 hr): 0.38 ± 0.11 % dose/g
Biodistribution: Muscle ([3]; 1 hr): 0.08 ± 0.02 % dose/g
Biodistribution: PC3 tumor ([3]; 1 hr): 0.41 ± 0.10 % dose/g
Biodistribution: PIP PC3 tumor ([3]; 1 hr): 11.29 ± 2.44 % dose/g
Biodistribution: Pancreas ([3]; 1 hr): 0.20 ± 0.09 % dose/g
Biodistribution: Skin ([3]; 1 hr): 0.22 ± 0.05 % dose/g
Biodistribution: Sm Intestine ([3]; 1 hr): 0.24 ± 0.15 % dose/g
Biodistribution: Spleen ([3]; 1 hr): 0.53 ± 0.17 % dose/g
Biodistribution: Stomach ([3]; 1 hr): 0.17 ± 0.07 % dose/g
Biodistribution: Blood ([3]; 4 hr): 0.02 ± 0.01 % dose/g
Biodistribution: Bone ([3]; 4 hr): 5.62 ± 1.18 % dose/g
Biodistribution: Heart ([3]; 4 hr): 0.06 ± 0.02 % dose/g
Biodistribution: Kidney ([3]; 4 hr): 11.81 ± 5.81 % dose/g
Biodistribution: Lg Intestine ([3]; 4 hr): 1.03 ± 1.01 % dose/g
Biodistribution: Liver ([3]; 4 hr): 0.08 ± 0.02 % dose/g
Biodistribution: Lung ([3]; 4 hr): 0.13 ± 0.04 % dose/g
Biodistribution: Muscle ([3]; 4 hr): 0.05 ± 0.04 % dose/g
Biodistribution: PC3 tumor ([3]; 4 hr): 0.28 ± 0.11 % dose/g
Biodistribution: PIP PC3 tumor ([3]; 4 hr): 7.62 ± 1.60 % dose/g
Biodistribution: Pancreas ([3]; 4 hr): 0.05 ± 0.02 % dose/g
Biodistribution: Skin ([3]; 4 hr): 0.10 ± 0.03 % dose/g
Biodistribution: Sm Intestine ([3]; 4 hr): 0.94 ± 1.12 % dose/g
Biodistribution: Spleen ([3]; 4 hr): 0.18 ± 0.06 % dose/g
Biodistribution: Stomach ([3]; 4 hr): 0.49 ± 0.60 % dose/g
Biodistribution: Blood ([3]; 24 hr): 0.00 ± 0.00 % dose/g
Biodistribution: Bone ([3]; 24 hr): 4.55 ± 0.26 % dose/g
Biodistribution: Heart ([3]; 24 hr): 0.03 ± 0.01 % dose/g
Biodistribution: Kidney ([3]; 24 hr): 2.62 ± 0.19 % dose/g
Biodistribution: Lg Intestine ([3]; 24 hr): 0.37 ± 0.20 % dose/g
Biodistribution: Liver ([3]; 24 hr): 0.06 ± 0.00 % dose/g
Biodistribution: Lung ([3]; 24 hr): 0.04 ± 0.01 % dose/g
Biodistribution: Muscle ([3]; 24 hr): 0.03 ± 0.02 % dose/g
Biodistribution: PC3 tumor ([3]; 24 hr): 0.11 ± 0.04 % dose/g
Biodistribution: PIP PC3 tumor ([3]; 24 hr): 4.72 ± 1.68 % dose/g
Biodistribution: Pancreas ([3]; 24 hr): 0.01 ± 0.00 % dose/g
Biodistribution: Skin ([3]; 24 hr): 0.05 ± 0.01 % dose/g
Biodistribution: Sm Intestine ([3]; 24 hr): 0.06 ± 0.05 % dose/g
Biodistribution: Spleen ([3]; 24 hr): 0.04 ± 0.01 % dose/g
Biodistribution: Stomach ([3]; 24 hr): 0.14 ± 0.10 % dose/g
PC3 (PSMA negative) tumor uptake ([3]; mouse, in vivo): very low uptake
PIP PC3 (PSMA positive) tumor uptake ([3]; mouse, in vivo): excellent
Uptake in bone ([3]; mouse, in vivo): high specific uptake in bone
In vitro cell uptake ([4]; PIP PC3, 5 min): 3.3 % ID per 5 × 10^5 cells
In vitro cell uptake ([4]; PIP PC3, 15 min): 5.5 % ID per 5 × 10^5 cells
In vitro cell uptake ([4]; PIP PC3, 30 min): 7.6 % ID per 5 × 10^5 cells
In vitro cell uptake ([4]; PIP PC3, 60 min): 8.6 % ID per 5 × 10^5 cells
In vitro cell uptake [4, 5]: 0.9 % ID per 5 × 10^5 cells
In vitro cell uptake ([4]; PIP PC3, 120 min): 9.8 % ID per 5 × 10^5 cells
